biological target: T1, myeloperoxidase (MPO) (Homo sapiens (Human), UniProt P05164); test: MPO peroxidation assay (Amplex Red assay); assay type: biochemical; settings: potency range class
Method: MPO Peroxidation Assay (Amplex Red Assay) MPO peroxidation activity was measured in 100 mM KPi (pH 7.4) by utilizing the non-fluorescent reagent Amplex Red (Invitrogen Cat. #A12222) which can be oxidized to the highly fluorescent resorufin. Amplex Red is oxidized by the peroxidase action of MPO to resorufin. Reactions were carried out in 50 μL total volume by adding a 25 μL mixture of 200 pM myeloperoxidase and 40 nM H2O2(Sigma #349887) to 100 nL inhibitor in 100% DMSO in a 384 well Perkin Elmer Optiplate. Enzyme and compound were preincubated for ten minutes at room temperature. After the ten minute preincubation, 25 μL of an Amplex Red mixture containing 200 μM Amplex Red and 10 mM H2O2 was added to the plate. Kinetic determinations were carried out immediately on a Perkin Elmer Envision (15 minute kinetic read, Ex: 535 nm, Em: 590 nm). IC50 values were calculated by determining the slope of the linear portion of the kinetic trace (180-540 secs), and using that calculated slope to determine % inhibition occurring at each concentration of inhibitor using the following equation: [formula] where A=minimal Y value (activity level of inhibited sample), B=maximal Y value (activity level of uninhibited sample), C=Log IC50, D=Hill Slope, x=concentration of inhibitor. MPO Chlorination Assay (APF Assay)

T1 sequence (P05164 49-745): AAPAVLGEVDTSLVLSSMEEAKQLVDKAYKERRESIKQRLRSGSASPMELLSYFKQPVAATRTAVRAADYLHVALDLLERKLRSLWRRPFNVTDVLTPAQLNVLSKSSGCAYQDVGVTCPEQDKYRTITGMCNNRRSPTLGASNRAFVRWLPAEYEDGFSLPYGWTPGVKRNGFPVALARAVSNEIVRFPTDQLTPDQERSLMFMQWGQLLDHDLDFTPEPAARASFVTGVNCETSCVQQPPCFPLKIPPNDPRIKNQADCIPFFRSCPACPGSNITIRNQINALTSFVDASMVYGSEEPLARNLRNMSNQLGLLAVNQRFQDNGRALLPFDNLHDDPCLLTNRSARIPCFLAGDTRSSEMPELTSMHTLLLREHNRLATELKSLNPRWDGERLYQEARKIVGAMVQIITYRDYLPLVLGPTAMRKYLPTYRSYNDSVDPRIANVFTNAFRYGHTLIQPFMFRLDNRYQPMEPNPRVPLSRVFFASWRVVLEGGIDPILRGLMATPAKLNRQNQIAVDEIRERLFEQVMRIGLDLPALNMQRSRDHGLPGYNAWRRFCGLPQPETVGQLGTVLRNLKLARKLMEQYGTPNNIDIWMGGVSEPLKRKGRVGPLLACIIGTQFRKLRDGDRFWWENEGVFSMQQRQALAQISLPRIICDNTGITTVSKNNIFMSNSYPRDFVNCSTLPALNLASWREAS

IC50 [nM] | SMILES
1 to 100 | Nc1cc(Cc2cnn(Cc3cccc(C4CCNC4)c3)c2)c2nn[nH]c2n1 (stereo in doubt) [Example 191, 7-{[1-({3-[(3S)-Pyrrolidin-3-yl]phenyl}yl]methyl}-3H-[1,2,3]triazolo[4,5-b]pyridin-5-amine]
101 to 999 | Cc1c(Cc2cc(N)nc3[nH]nnc23)cnn1-c1ccc(F)cc1 [Example 2, 7-((1-(4-Fluorophenyl)-5-methyl-1H-pyrazol-4-yl)methyl)-3H-triazolo[4,5-b]pyridin-5-amine]
1 to 100 | Nc1cc(Cc2cnn(-c3cccc(F)c3)c2)c2nn[nH]c2n1 [Example 3, 7-((1-(3-Fluorophenyl)-1H-pyrazol-4-yl)methyl)-3H-[1,2,3]triazolo[4,5-b]pyridin-5-amine]
1 to 100 | Nc1cc(Cc2cnn(-c3ccccc3F)c2)c2nn[nH]c2n1 [Example 4, 7-((1-(2-Fluorophenyl)-1H-pyrazol-4-yl)methyl)-3H-[1,2,3]triazolo[4,5-b]pyridin-5-amine]
101 to 999 | Nc1cc(Cc2cnn(-c3ccccc3)n2)c2nn[nH]c2n1 [Example 6, 7-((2-Phenyl-2H-1,2,3-triazol-4-yl)methyl)-3H-[1,2,3]triazolo[4,5-b]pyridin-5-amine]
1 to 100 | Nc1cc(Cc2cnn(-c3cccc(Cl)c3)c2)c2nn[nH]c2n1 [Example 7, 7-((1-(3-Chlorophenyl)-1H-pyrazol-4-yl)methyl)-3H-[1,2,3]triazolo[4,5-b]pyridin-5-amine]
1 to 100 | Nc1cc(Cc2cnn(-c3ccc(Br)cc3)c2)c2nn[nH]c2n1 [Example 8, 7-((1-(4-Bromophenyl)-1H-pyrazol-4-yl)methyl)-3H-[1,2,3]triazolo[4,5-b]pyridin-5-amine]
101 to 999 | Nc1cc(Cc2cnn(-c3ccc4ccccc4c3)c2)c2nn[nH]c2n1 [Example 12, 7-((1-(Naphthalen-2-yl)-1H-pyrazol-4-yl)methyl)-3H-[1,2,3]triazolo[4,5-b]pyridin-5-amine]
1 to 100 | Cc1ccc(-n2cc(Cc3cc(N)nc4[nH]nnc34)cn2)c2ccccc12 [Example 13, 7-((1-(4-Methylnaphthalen-1-yl)-1H-pyrazol-4-yl)methyl)-3H-[1,2,3]triazolo[4,5-b]pyridin-5-amine]
1 to 100 | Nc1cc(Cc2cnn(-c3cccc(C4CC4)c3)c2)c2nn[nH]c2n1 [Example 15, 7-((1-(3-Cyclopropylphenyl)-1H-pyrazol-4-yl)methyl)-3H-[1,2,3]triazolo[4,5-b]pyridin-5-amine]
101 to 999 | Nc1cc(Cc2cnn(-c3cccc4cccnc34)c2)c2nn[nH]c2n1 [Example 16, 7-((1-(Quinolin-8-yl)-1H-pyrazol-4-yl)methyl)-3H-[1,2,3]triazolo[4,5-b]pyridin-5-amine]
1 to 100 | Nc1cc(Cc2cnn(-c3ccc(F)cn3)c2)c2nn[nH]c2n1 [Example 17, 7-((1-(5-Fluoropyridin-2-yl)-1H-pyrazol-4-yl)methyl)-3H-[1,2,3]triazolo[4,5-b]pyridin-5-amine]
1 to 100 | Nc1cc(Cc2cnn(-c3cncc4ccccc34)c2)c2nn[nH]c2n1 [Example 18, 7-((1-(Isoquinolin-4-yl)-1H-pyrazol-4-yl)methyl)-3H-[1,2,3]triazolo[4,5-b]pyridin-5-amine]
101 to 999 | Nc1cc(Cc2cnn(-c3cncc(F)c3)c2)c2nn[nH]c2n1 [Example 22, 7-((1-(5-Fluoropyridin-3-yl)-1H-pyrazol-4-yl)methyl)-3H-[1,2,3]triazolo[4,5-b]pyridin-5-amine]
1 to 100 | COc1cccc(-n2cc(Cc3cc(N)nc4[nH]nnc34)cn2)c1 [Example 23, 7-((1-(3-Methoxyphenyl)-1H-pyrazol-4-yl)methyl)-3H-[1,2,3]triazolo[4,5-b]pyridin-5-amine]
101 to 999 | Cc1ccc(-n2cc(Cc3cc(N)nc4[nH]nnc34)cn2)cc1 [Example 26, 7-((1-(4-Methylphenyl)-1H-pyrazol-4-yl)methyl)-3H-[1,2,3]triazolo[4,5-b]pyridin-5-amine]

IC50 [nM] | SMILES
101 to 999 | COc1ccc(-n2cc(Cc3cc(N)nc4[nH]nnc34)cn2)cc1 [Example 27, 7-((1-(4-Methoxyphenyl)-1H-pyrazol-4-yl)methyl)-3H-[1,2,3]triazolo[4,5-b]pyridin-5-amine]
101 to 999 | COc1ccccc1-n1cc(Cc2cc(N)nc3[nH]nnc23)cn1 [Example 28, 7-((1-(2-Methoxyphenyl)-1H-pyrazol-4-yl)methyl)-3H-[1,2,3]triazolo[4,5-b]pyridin-5-amine]
1 to 100 | Nc1cc(Cc2cnn(-c3cccc(Br)c3)c2)c2nn[nH]c2n1 [Example 29, 7-((1-(3-Bromophenyl)-1H-pyrazol-4-yl)methyl)-3H-[1,2,3]triazolo[4,5-b]pyridin-5-amine]
1 to 100 | Nc1cc(Cc2cnn(-c3cccnc3)c2)c2nn[nH]c2n1 [Example 30, 7-((1-(Pyridin-3-yl)-1H-pyrazol-4-yl)methyl)-3H-[1,2,3]triazolo[4,5-b]pyridin-5-amine]
101 to 999 | COc1cc(-n2cc(Cc3cc(N)nc4[nH]nnc34)cn2)ccn1 [Example 32, 7-((1-(2-Methoxypyridin-4-yl)-1H-pyrazol-4-yl)methyl)-3H-[1,2,3]triazolo[4,5-b]pyridin-5-amine]
1 to 100 | COc1ccc2cccc(-n3cc(Cc4cc(N)nc5[nH]nnc45)cn3)c2c1 [Example 35, 7-((1-(7-Methoxynaphthalen-1-yl)-1H-pyrazol-4-yl)methyl)-3H-[1,2,3]triazolo[4,5-b]pyridin-5-amine]
1 to 100 | Nc1cc(Cc2cnn(-c3cccc(OCc4ccccc4)c3)c2)c2nn[nH]c2n1 [Example 37, 7-((1-(3-(Benzyloxy)phenyl)-1H-pyrazol-4-yl)methyl)-3H-[1,2,3]triazolo[4,5-b]pyridin-5-amine]
101 to 999 | Nc1cc(Cc2cnn(-c3ccc(=O)[nH]c3)c2)c2nn[nH]c2n1 [Example 38, 5-(4-((5-Amino-3H-[1,2,3]triazolo[4,5-b]pyridin-7-yl)methyl)-1H-pyrazol-1-yl)pyridin-2(1H)-one]
101 to 999 | Nc1cc(Cc2cnc(-c3ccc(F)cc3)s2)c2nn[nH]c2n1 [Example 47, 7-((2-(4-Fluorophenyl)thiazol-5-yl)methyl)-3H-[1,2,3]triazolo[4,5-b]pyridin-5-amine]
1 to 100 | Nc1cc(Cc2ccc(-c3ccccc3)s2)c2nn[nH]c2n1 [Example 49, 7-((5-Phenylthiophen-2-yl)methyl)-3H-[1,2,3]triazolo[4,5-b]pyridin-5-amine]
101 to 999 | Cc1cc(Cc2cc(N)nc3[nH]nnc23)sc1C [Example 50, 7-((4,5-Dimethylthiophen-2-yl)methyl)-3H-[1,2,3]triazolo[4,5-b]pyridin-5-amine]
1 to 100 | Nc1cc(Cc2ccc(-c3ccccn3)s2)c2nn[nH]c2n1 [Example 51, 7-((5-(Pyridin-2-yl)thiophen-2-yl)methyl)-3H-[1,2,3]triazolo[4,5-b]pyridin-5-amine]
101 to 999 | CS(=O)(=O)c1ccc(Cn2cc(Cc3cc(N)nc4[nH]nnc34)cn2)cc1 [Example 58, 7-((1-(4-(Methylsulfonyl)benzyl)-1H-pyrazol-4-yl)methyl)-3H-[1,2,3]triazolo[4,5-b]pyridin-5-amine]
1 to 100 | CC(c1ccccc1)n1cc(Cc2cc(N)nc3[nH]nnc23)cn1 (centres unmarked) [Example 63, 7-((1-(1-Phenylethyl)-1H-pyrazol-4-yl)methyl)-3H-[1,2,3]triazolo[4,5-b]pyridin-5-amine]
1000 to 10000 | Nc1cc(Cc2ccc(C(F)(F)F)o2)c2nn[nH]c2n1 [Example 70, 7-{[5-(Trifluoromethyl)furan-2-yl]methyl}-3H-[1,2,3]triazolo[4,5-b]pyridin-5-amine]
1000 to 10000 | NC(=O)c1ccc(Cn2cc(Cc3cc(N)nc4[nH]nnc34)cn2)cc1 [Example 73, 4-((4-((5-Amino-3H-[1,2,3]triazolo[4,5-b]pyridin-7-yl)methyl)-1H-pyrazol-1-yl)methyl)benzamide]

biological target: T1, myeloperoxidase (MPO); test: MPO chlorination assay (APF assay); assay type: biochemical; settings: potency range class
Method: [formula] where A=minimal Y value (activity level of inhibited sample), B=maximal Y value (activity level of uninhibited sample), C=Log IC50, D=Hill Slope, x=concentration of inhibitor. MPO Chlorination Assay (APF Assay) MPO chlorination activity was measured in 100 mM KPi (pH 7.4) by utilizing the non-fluorescent reagent Aminophenyl fluorescein (APF, Invitrogen Cat. #A36003). APF is cleaved by (—OCl) to yield the fluorescent compound fluorescein. Reactions were carried out in 50 μL total volume by adding a 25 μL mixture of 200 pM myeloperoxidase and 120 mM NaCl to 100 nL inhibitor in 100% DMSO in a 384 well, non-binding surface clear bottom plate (Corning #3655). Enzyme, inhibitor, and chloride were preincubated for ten minutes at room temperature. After the ten minute preincubation, 25 μL of an APF mixture containing […], 120 mM NaCl and 10 μM H2O2 was added to the plate using the internal dispensing system of a Hammatsu FDSS 6000. Kinetic determinations were carried out immediately on the FDSS 6000 (3 minute kinetic read, 1 read every second, ex: 485 nm, em: 535 nm). IC50 values for inhibitors were calculated by taking the slope of the linear portion of the kinetic measurement (20 seconds to ˜80-120 secs). IC50 values were calculated by determining the slope of the linear portion of the kinetic trace […], and using that calculated slope to determine % inhibition occurring at each concentration of inhibitor using the following equation: [formula] where A=minimal Y value (activity level of inhibited sample), B=maximal Y value (activity level of uninhibited sample), C=Log IC50, D=Hill Slope, x=concentration of inhibitor. EPX Bromination Assay

IC50 [nM] | SMILES
1 to 100 | Nc1cc(Cc2cnn(Cc3cccc(C4CCNC4)c3)c2)c2nn[nH]c2n1 (stereo in doubt) [Example 191, 7-{[1-({3-[(3S)-Pyrrolidin-3-yl]phenyl}yl]methyl}-3H-[1,2,3]triazolo[4,5-b]pyridin-5-amine]
101 to 999 | Cc1c(Cc2cc(N)nc3[nH]nnc23)cnn1-c1ccc(F)cc1 [Example 2, 7-((1-(4-Fluorophenyl)-5-methyl-1H-pyrazol-4-yl)methyl)-3H-triazolo[4,5-b]pyridin-5-amine]
101 to 999 | Nc1cc(Cc2cnn(-c3cccc(F)c3)c2)c2nn[nH]c2n1 [Example 3, 7-((1-(3-Fluorophenyl)-1H-pyrazol-4-yl)methyl)-3H-[1,2,3]triazolo[4,5-b]pyridin-5-amine]
1 to 100 | Nc1cc(Cc2cnn(-c3ccccc3F)c2)c2nn[nH]c2n1 [Example 4, 7-((1-(2-Fluorophenyl)-1H-pyrazol-4-yl)methyl)-3H-[1,2,3]triazolo[4,5-b]pyridin-5-amine]
101 to 999 | Nc1cc(Cc2cnn(-c3ccccc3)n2)c2nn[nH]c2n1 [Example 6, 7-((2-Phenyl-2H-1,2,3-triazol-4-yl)methyl)-3H-[1,2,3]triazolo[4,5-b]pyridin-5-amine]
1 to 100 | Nc1cc(Cc2cnn(-c3cccc(Cl)c3)c2)c2nn[nH]c2n1 [Example 7, 7-((1-(3-Chlorophenyl)-1H-pyrazol-4-yl)methyl)-3H-[1,2,3]triazolo[4,5-b]pyridin-5-amine]

— patent US10407422B2, “Triazolopyridine inhibitors of myeloperoxidase” (priority 2015, dated 2019)
